# From patent US11504323B2, “Boundary surface charged contact lens for delivery” (Lynthera Corporation, priority 2020, dated 2022)
# Counter-ions that a name gives are not always drawn. Like-named read-outs stand apart in the source and are kept apart here.
# Assays:
# [1] = cited from earlier work
# [2] = Release of THCL and KTF from oleic acid loaded lenses in PBS at different pH; details: release medium pH from 7.4 to 5.5
# [3] = cited from earlier work; remark: listed apart in the source
release kinetics of KTF as pH decreases [2],SMILES,solubility in PBS ([1]; pH 7) [µg/mL],solubility in PBS ([1]; pH 10) [µg/mL],Solubility in water [3] [µM]
accelerated,"CN1CCC(=C2c3ccccc3CC(=O)c3sccc32)CC1 [KTF, ketotifen fumarate]",10500,20,
,CCCCCCCCCCCCCC(=O)O [Myristic acid],,,1
